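Protocol summary: plate cells (96-well), add compound at 5 concentrations, incubate 48 h, interpolate endpoints linearly. Abbreviation: GI50, concentration required for 50% inhibition of growth.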 Active and inactive are the calls of the source. Cut-off read from the data, not from the text of the source: active = GI50 up to about 1.1 µM and inactive = higher.
Key:
Assay in all cases: NCI anticancer screen, dose series, 48 h
[1] = tested on: SN12C
[2] = tested on: TK-10
[3] = tested on: SW-620
[4] = tested on: SNB-75
[5] = tested on: SR
[6] = tested on: DMS-114
[7] = tested on: HT-29
[8] = tested on: SK-MEL-2
[9] = tested on: NCI-H226
[10] = tested on: HCC 2998
[11] = tested on: OVCAR-5
[12] = tested on: COLO 205
[13] = tested on: SNB-78
[14] = tested on: LOX IMVI
[15] = tested on: DLD-1
[16] = tested on: MOLT-4
[17] = tested on: OVCAR-4
[18] = tested on: SNB-19
[19] = tested on: HCT-116
[20] = tested on: SK-MEL-5
[21] = tested on: NCI-H460
[22] = tested on: SF-295
[23] = tested on: CCRF-CEM
[24] = tested on: XF498
[25] = tested on: SF-539
[26] = tested on: A498
[27] = tested on: K562
[28] = tested on: CAKI-1
[29] = tested on: NCI-H522
[30] = tested on: HCT-15
[31] = tested on: NCI-H23
[32] = tested on: Malme-3M
[33] = tested on: SF-268
[34] = tested on: 786-0
[35] = tested on: KM-20L2
[36] = tested on: HOP-18
[37] = tested on: U-251
[38] = tested on: HOP-62
[39] = tested on: ACHN
[40] = tested on: UACC-257
[41] = tested on: SK-MEL-28
[42] = tested on: RXF 631
[43] = tested on: OVCAR-8
[44] = tested on: M14
[45] = tested on: KM12
[46] = tested on: RXF 393
[47] = tested on: UACC-62
[48] = tested on: M19-MEL
[49] = tested on: SK-OV-3
[50] = tested on: LXFL 529
[51] = tested on: EKVX
[52] = tested on: DMS-273
[53] = tested on: UO-31
[54] = tested on: IGROV-1
[55] = tested on: RPMI-8226
[56] = tested on: A549
[57] = tested on: HL-60
[58] = tested on: OVCAR-3
[59] = tested on: HOP-92

Measured: GI50

Cc1c[nH]c2c1C13CC1CN(C(=O)c1cc4cc(NC(=O)c5cc6ccccc6o5)ccc4[nH]1)C3=CC2=O (stereo unspecified)
< 0.001 µM: [30]
active: [1] < 0.001 µM | [2] < 0.001 µM | [3] < 0.001 µM | [4] < 0.001 µM | [5] < 0.001 µM | [6] < 0.001 µM | [7] < 0.001 µM | [8] < 0.001 µM | [9] < 0.001 µM | [10] < 0.001 µM | [11] < 0.001 µM | [12] < 0.001 µM | [13] < 0.001 µM | [14] < 0.001 µM | [15] < 0.001 µM | [16] < 0.001 µM | [17] < 0.001 µM | [18] < 0.001 µM | [19] < 0.001 µM | [20] < 0.001 µM | [21] < 0.001 µM | [22] < 0.001 µM | [23] < 0.001 µM | [24] < 0.001 µM | [25] < 0.001 µM | [26] < 0.001 µM | [27] < 0.001 µM | [28] < 0.001 µM | [29] < 0.001 µM | [31] < 0.001 µM | [32] < 0.001 µM | [33] < 0.001 µM | [34] < 0.001 µM | [35] < 0.001 µM | [36] < 0.001 µM | [37] < 0.001 µM | [38] < 0.001 µM | [39] < 0.001 µM | [40] < 0.001 µM | [41] < 0.001 µM | [42] < 0.001 µM | [43] < 0.001 µM | [44] < 0.001 µM | [45] < 0.001 µM | [46] < 0.001 µM | [47] < 0.001 µM | [48] < 0.001 µM

COc1ccc2oc3c(OC)c(OC)c(OC)cc3c(=O)c2c1
> 100 µM: [30]
active: [36] 0.232 µM
inactive: [1] > 100 µM | [49] > 100 µM | [2] > 100 µM | [3] > 100 µM | [4] 24.7 µM | [50] > 100 µM | [6] > 100 µM | [7] > 100 µM | [51] 76 µM | [8] > 100 µM | [52] > 100 µM | [10] > 100 µM | [11] > 100 µM | [12] > 100 µM | [13] 69.7 µM | [14] > 100 µM | [15] > 100 µM | [16] > 100 µM | [17] > 100 µM | [18] > 100 µM | [53] > 100 µM | [19] > 100 µM | [20] > 100 µM | [21] > 100 µM | [23] > 100 µM | [24] > 100 µM | [25] 40.4 µM | [26] > 100 µM | [27] > 100 µM | [28] > 100 µM | [29] 21.8 µM | [31] > 100 µM | [32] > 100 µM | [33] > 100 µM | [54] > 100 µM | [34] > 100 µM | [35] > 100 µM | [37] 71.6 µM | [38] 50.2 µM | [39] > 100 µM | [40] > 100 µM | [41] > 100 µM | [55] > 100 µM | [42] > 100 µM | [43] > 100 µM | [44] > 100 µM | [56] > 100 µM | [46] 21.4 µM | [47] > 100 µM | [48] > 100 µM

Clc1ccc(CCc2ccncn2)c(Cl)c1
inactive: [1] > 100 µM | [49] > 100 µM | [2] > 100 µM | [3] > 100 µM | [4] 68.5 µM | [57] 30.1 µM | [50] 36.3 µM | [6] 30.1 µM | [7] > 100 µM | [51] 9.68 µM | [8] > 100 µM | [9] 60.5 µM | [52] 97.5 µM | [10] > 100 µM | [11] > 100 µM | [12] 64.9 µM | [13] 61.5 µM | [14] > 100 µM | [15] > 100 µM | [16] 29.3 µM | [17] > 100 µM | [18] 35.6 µM | [53] 38.5 µM | [19] 52.5 µM | [58] 39.5 µM | [20] 19.5 µM | [21] > 100 µM | [22] 61.4 µM | [59] 54.6 µM | [25] > 100 µM | [26] 86.5 µM | [27] 63.8 µM | [28] 50.2 µM | [29] 37.7 µM | [31] 49.3 µM | [32] 58.9 µM | [33] 77.3 µM | [54] > 100 µM | [34] > 100 µM | [35] 73.5 µM | [36] 33.3 µM | [37] 41.5 µM | [38] > 100 µM | [39] > 100 µM | [40] 38.1 µM | [41] > 100 µM | [55] 25.5 µM | [42] 60.1 µM | [43] 97.3 µM | [44] > 100 µM | [56] > 100 µM | [45] 63 µM | [46] 27 µM | [47] 53.2 µM | [48] 47.8 µM
79.6 µM: [30]
